Molecular target: T1, Sfh1 (Saccharomyces cerevisiae, UniProt P33324)
T1 sequence (P33324 1-310): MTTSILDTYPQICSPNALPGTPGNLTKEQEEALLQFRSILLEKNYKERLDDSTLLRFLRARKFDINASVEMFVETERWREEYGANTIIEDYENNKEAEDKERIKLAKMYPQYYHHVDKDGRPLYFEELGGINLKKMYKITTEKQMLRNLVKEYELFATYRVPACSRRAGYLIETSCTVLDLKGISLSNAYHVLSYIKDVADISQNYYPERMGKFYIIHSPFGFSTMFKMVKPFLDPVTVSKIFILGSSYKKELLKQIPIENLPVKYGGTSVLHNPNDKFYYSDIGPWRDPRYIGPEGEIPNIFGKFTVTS
Assay: CW X-band EPR, loading from multilamellar liposomes
Format: binding
Conditions: 130 μM protein, twofold molar excess of lipid, pH 6.8, 23°C; labelled compound

With “1-acyl-2-(n-(4,4-dimethyloxazolidine-N-oxyl)stearoyl)-sn-glycero-3-phosphocholines [16-doxyl-PtdCho]” the “% of total protein loaded” value was ~ 20%.

Reference: article PMC3057712 (Molecular Biology of the Cell, 2011)
